Source: BindingDB's records for doi:10.7270/Q2P26WT9 (The Scripps Research Institute Molecular Screening Center, 2014)

Molecular target: T1, RNA-editing ligase 1, mitochondrial (Trypanosoma brucei brucei, UniProt P86926)
T1 sequence (P86926 whole entry): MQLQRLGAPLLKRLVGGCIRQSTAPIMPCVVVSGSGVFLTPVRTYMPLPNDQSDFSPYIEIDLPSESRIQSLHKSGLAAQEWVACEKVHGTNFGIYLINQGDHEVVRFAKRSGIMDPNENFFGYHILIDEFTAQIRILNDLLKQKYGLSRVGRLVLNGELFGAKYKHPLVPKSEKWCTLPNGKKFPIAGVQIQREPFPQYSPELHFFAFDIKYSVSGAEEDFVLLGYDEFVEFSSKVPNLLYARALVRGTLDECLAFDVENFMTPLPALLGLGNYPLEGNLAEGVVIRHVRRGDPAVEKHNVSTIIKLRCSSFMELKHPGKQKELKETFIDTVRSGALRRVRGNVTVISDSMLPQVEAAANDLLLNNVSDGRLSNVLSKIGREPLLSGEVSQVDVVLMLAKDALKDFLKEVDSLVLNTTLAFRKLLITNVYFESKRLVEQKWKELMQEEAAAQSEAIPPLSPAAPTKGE
Test: inhibition of trypanosome RNA editing ligase – biochemical, fluorescence, Trypanosoma brucei, dose response (AID 1117295)

| Structure (SMILES) | IC50 [µM] |
| --- | --- |
| NC(=NNC=c1ccc(=C2C=CC(=O)C(C(=O)O)=C2)o1)N[N+](=O)[O-] [5-(5-{2-[amino(nitroimino)methyl]carbonohydrazonoyl}-2-furyl)-2-hydroxybenzoic acid] | 21.2 |
| COc1ccc(Cn2c(Nc3cc(Cl)ccc3OC)c3[nH]cccc-3c2=O)cc1 [7-[(5-chloranyl-2-methoxy-phenyl)amino]-6-[(4-methoxyphenyl)methyl]-7H-pyrrolo[3,4-b]pyridin-5-one] | 16.1 |
| Oc1ccccc1CN=Nc1cc(N2CCCC2)nc(N2CCCC2)n1 [(6E)-6-[[[2,6-bis(1-pyrrolidinyl)-4-pyrimidinyl]hydrazo]methylidene]-1-cyclohexa-2,4-dienone] | > 96.6 |
